PubChem BioAssay AID248 (DTP/NCI, 2004)
Several values for one entry are separate records, joined by “and”; a condition that tells them apart may be missing. Identical values can stand only once. Inconclusive results and toxic doses are left out. Rule as the data show it: active = T/C of 150% or more; inactive = T/C below 125%.

Tested on: L1210 leukemia ip in BDF1 mice, survival T/C
Experiment: NCI In Vivo Anticancer Drug Screen. Data for tumor model L1210 Leukemia (intraperitoneal) in B6D2F1 (BDF1) mice
Conditions: endpoint: mean survival time, higher = longer survival
Method in brief: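 Transplantable tumor model; survival measured in treated vs vehicle control mice. Value = treated/control.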

[1] = dose: 100.0 mg/kg/injection, schedule: Q04DX002 (ip), vehicle: Klucel (hydroxypropylcellulose) (HPC)
[2] = dose: 200.0 mg/kg/injection, schedule: Q04DX002 (ip), vehicle: Klucel (hydroxypropylcellulose) (HPC)
[3] = dose: 400.0 mg/kg/injection, schedule: Q04DX002 (ip), vehicle: Klucel (hydroxypropylcellulose) (HPC)
[4] = dose: 6.25 mg/kg/injection, schedule: Q01DX009 (ip), vehicle: saline
[5] = dose: 100.0 mg/kg/injection, schedule: Q01DX009 (ip), vehicle: Klucel (hydroxypropylcellulose) (HPC)
[6] = dose: 100.0 mg/kg/injection, schedule: Q04DX003 (ip), vehicle: Klucel (hydroxypropylcellulose) (HPC)
[7] = dose: 200.0 mg/kg/injection, schedule: Q01DX009 (ip), vehicle: Klucel (hydroxypropylcellulose) (HPC)
[8] = dose: 200.0 mg/kg/injection, schedule: Q04DX003 (ip), vehicle: Klucel (hydroxypropylcellulose) (HPC)
[9] = dose: 400.0 mg/kg/injection, schedule: Q04DX003 (ip), vehicle: Klucel (hydroxypropylcellulose) (HPC)
[10] = dose: 100.0 mg/kg/injection, schedule: Q04DX003 (ip), vehicle: saline with Tween-80
[11] = dose: 200.0 mg/kg/injection, schedule: Q04DX003 (ip), vehicle: saline with Tween-80

Measured: T/C

Cc1ncc(/C=N/O)n1Cc1ccccc1
inactive: dose: 100.0 mg/kg/injection, schedule: Q01DX001 (ip), vehicle: other 97 % of control and 90 % of control | [1] 98 % of control | dose: 100.0 mg/kg/injection, schedule: Q04DX002 (ip), vehicle: other 94 % of control and 96 % of control | dose: 100.0 mg/kg/injection, schedule: Q04DX003 (ip), vehicle: other 97 % of control | dose: 200.0 mg/kg/injection, schedule: Q01DX001 (ip), vehicle: other 94 % of control and 97 % of control | [2] 94 % of control | dose: 200.0 mg/kg/injection, schedule: Q04DX002 (ip), vehicle: other 99 % of control and 105 % of control | dose: 200.0 mg/kg/injection, schedule: Q04DX003 (ip), vehicle: other 97 % of control and 100 % of control | dose: 400.0 mg/kg/injection, schedule: Q01DX001 (ip), vehicle: other 93 % of control and 91 % of control | [3] 105 % of control | dose: 400.0 mg/kg/injection, schedule: Q04DX002 (ip), vehicle: other 99 % of control and 92 % of control | dose: 400.0 mg/kg/injection, schedule: Q04DX003 (ip), vehicle: other 89 % of control and 90 % of control

O=C(O)C1C(C(=O)O)C23CC2(C(=O)O)C2(C(=O)O)CCC3=C3CCCC312 (centres undefined)
inactive: [4] 109 % of control | dose: 6.25 mg/kg/injection, schedule: Q04DX003 (ip), vehicle: saline 104 % of control | dose: 12.5 mg/kg/injection, schedule: Q01DX001 (ip), vehicle: saline 114 % of control | dose: 12.5 mg/kg/injection, schedule: Q01DX009 (ip), vehicle: saline 111 % of control | dose: 12.5 mg/kg/injection, schedule: Q04DX003 (ip), vehicle: saline 104 % of control | dose: 25.0 mg/kg/injection, schedule: Q01DX001 (ip), vehicle: saline 98 % of control | dose: 25.0 mg/kg/injection, schedule: Q04DX003 (ip), vehicle: saline 103 % of control

CN(C)Cc1ccccc1COC(=O)c1ccc([N+](=O)[O-])cc1Cl
inactive: [1] 102 % of control | [2] 109 % of control | [3] 94 % of control

Cc1ncc(C#N)n1Cc1ccccc1
inactive: [5] 98 % of control and 101 % of control | [1] 101 % of control and 113 % of control | [6] 109 % of control | [7] 101 % of control and 103 % of control | [2] 103 % of control and 108 % of control | [8] 104 % of control | dose: 400.0 mg/kg/injection, schedule: Q01DX009 (ip), vehicle: Klucel (hydroxypropylcellulose) (HPC) 101 % of control | [3] 103 % of control and 109 % of control | [9] 111 % of control

Cc1ccc(S(=O)(=O)[O][Pb]([CH3])([CH3])[CH3])cc1
inactive: dose: 3.12 mg/kg/injection, schedule: Q01DX009 (ip), vehicle: saline 104 % of control | dose: 3.12 mg/kg/injection, schedule: Q04DX002 (ip), vehicle: saline 108 % of control | [4] 86 % of control | dose: 6.25 mg/kg/injection, schedule: Q04DX002 (ip), vehicle: saline 108 % of control | dose: 12.5 mg/kg/injection, schedule: Q04DX002 (ip), vehicle: saline 101 % of control

O=C(N/N=C\c1ccc(Cl)c(Cl)c1)N/N=C/c1ccc(Cl)c(Cl)c1
inactive: dose: 50.0 mg/kg/injection, schedule: Q04DX003 (ip), vehicle: Klucel (hydroxypropylcellulose) (HPC) 92 % of control | [6] 87 % of control | [8] 92 % of control

c1cc2c3c(c1)ncn3CCC2
inactive: dose: 50.0 mg/kg/injection, schedule: Q01DX009 (ip), vehicle: other 119 % of control | dose: 100.0 mg/kg/injection, schedule: Q01DX009 (ip), vehicle: other 104 % of control | [10] 102 % of control | dose: 200.0 mg/kg/injection, schedule: Q01DX009 (ip), vehicle: other 117 % of control | [11] 100 % of control

CCC(CO)Nc1nc2ccccc2c2ccccc12 (centres undefined)
inactive: [5] 102 % of control | [6] 98 % of control | [7] 97 % of control | [8] 89 % of control | [9] 88 % of control

COc1cc(C[C@H]2c3cc(OC)c(OC)cc3CCN2C)c(Oc2cc3c(cc2OC)-c2c(OC)c(OC)cc4c2[C@H](C3)N(C)CC4)cc1OC
inactive: dose: 12.0 mg/kg/injection, schedule: Q01DX005 (ip), vehicle: other 110 % of control | dose: 12.0 mg/kg/injection, schedule: Q01DX009 (ip), vehicle: other 97 % of control | dose: 18.0 mg/kg/injection, schedule: Q04DX003 (ip), vehicle: other 107 % of control | dose: 24.0 mg/kg/injection, schedule: Q01DX005 (ip), vehicle: other 106 % of control | dose: 24.0 mg/kg/injection, schedule: Q01DX009 (ip), vehicle: other 105 % of control | dose: 25.0 mg/kg/injection, schedule: Q01DX009 (ip), vehicle: clinical formulation 103 % of control | dose: 27.0 mg/kg/injection, schedule: Q08DX002 (ip), vehicle: other 103 % of control | dose: 36.0 mg/kg/injection, schedule: Q04DX003 (ip), vehicle: other 103 % of control | dose: 48.0 mg/kg/injection, schedule: Q01DX005 (ip), vehicle: other 110 % of control | dose: 48.0 mg/kg/injection, schedule: Q01DX009 (ip), vehicle: other 108 % of control | dose: 50.0 mg/kg/injection, schedule: Q01DX009 (ip), vehicle: clinical formulation 100 % of control | dose: 54.0 mg/kg/injection, schedule: Q08DX002 (ip), vehicle: other 106 % of control | dose: 72.0 mg/kg/injection, schedule: Q04DX003 (ip), vehicle: other 108 % of control | dose: 80.0 mg/kg/injection, schedule: Q01DX015 (ip), vehicle: carboxymethylcellulose (CMC) 88 % of control | dose: 96.0 mg/kg/injection, schedule: Q01DX005 (ip), vehicle: other 108 % of control | dose: 96.0 mg/kg/injection, schedule: Q01DX009 (ip), vehicle: other 105 % of control | dose: 100.0 mg/kg/injection, schedule: Q01DX009 (ip), vehicle: clinical formulation 102 % of control | [1] 104 % of control | dose: 108.0 mg/kg/injection, schedule: Q08DX002 (ip), vehicle: other 102 % of control | dose: 144.0 mg/kg/injection, schedule: Q04DX003 (ip), vehicle: other 103 % of control | dose: 160.0 mg/kg/injection, schedule: Q01DX015 (ip), vehicle: carboxymethylcellulose (CMC) 93 % of control | dose: 192.0 mg/kg/injection, schedule: Q01DX005 (ip), vehicle: other 105 % of control | dose: 192.0 mg/kg/injection, schedule: Q01DX009 (ip), vehicle: other 101 % of control | [2] 86 % of control | dose: 216.0 mg/kg/injection, schedule: Q08DX002 (ip), vehicle: other 95 % of control | dose: 288.0 mg/kg/injection, schedule: Q04DX003 (ip), vehicle: other 97 % of control | [3] 101 % of control

COC(=O)C(=O)CC(=O)c1ccc(C)cc1
inactive: [1] 103 % of control | [2] 95 % of control | [3] 106 % of control

CC(=O)NCCN
inactive: dose: 100.0 mg/kg/injection, schedule: Q04DX003 (ip), vehicle: saline 92 % of control | dose: 400.0 mg/kg/injection, schedule: Q04DX003 (ip), vehicle: saline 108 % of control

O=C(CCCl)Oc1ccc(Cl)cc1
inactive: [10] 92 % of control | [11] 93 % of control | dose: 400.0 mg/kg/injection, schedule: Q04DX003 (ip), vehicle: saline with Tween-80 100 % of control
